Results as given in patent US20020061509A1, “Screening assay for the identification of agents which alter expression of PTH-rP” (Osteo Screen, priority 1996, published 2002).

Tests used:
PTH-rP promoter = test: PTH-rP promoter-firefly luciferase reporter assay in stably transfected MDA-MB-231 cells (Clone 30); assay type: cell-based, human; settings: concentration of 3.2 μM
Experimental: To perform studies on the PTH-rP promoter in whole cells, a human breast cancer cell line, MDA-MB-23 1 (kindly provided by C. Kent Osborne, San Antonio Tex.) and a human lung cancer cell line, RWGT2, were employed. Various PTH-rP promoters, described in Wysolmerski et al., 1996, were linked with the reporter gene firefly luciferase and stably transfected into cell lines. Plasmid constructs included pGL3B-PTH-rP1.1 and pGL4B-PTHrP 4.0. RWGT2 cells and MDA-MB-231 cells were cultured in DMEM (Life Technologies, Grand Island, N.Y.) with 10% FCS (Hyclone, Logan, Utah), 0.1% penicillin/streptomycin and 0.1% nonessential amino acids (Gibco) in 37° C. atmosphere of 5% CO2 /air.
Before stable transfection of MDA-MB-231 cells with pGL3B-PTH-rP1.1, the concentration of geneticin (G418) required to kill MDA 231 cells was determined to be 500 μg/ml. […]
Sucloning consisted of diluting the geneticin resistant MDA-MB-2311 cells containing pGL3B-PTHrP1.1 to a concentration of 0.3 cells/100 μl. […] The luciferase activity was assessed by luminometer. […] Routinely, 20 μl of cell lysate was mixed with 100 μl of luciferase assay reagent (270 μM co-enzyme A, 470 μM luciferin and 530 μM ATP) and the luciferase activity was measured for 10 seconds in a Turner TD-20e luminometer. […] The protein concentration was assessed using BioRed reagents. […]

[1] = tested on: RWGT2 cells (human squamous cell carcinoma of the lung); test: Hypercalcemia study: nude mice inoculated with RWGT2 cells; assay type: in vivo, BALB/c nude mice
Experimental: (§1) Compounds which are identified as regulating PTH-rP production were initially tested for their capacity to inhibit hypercalcemia in vivo by injecting tumor cells into nude mice and treating the mice with the potential inhibitory compounds. Specifically, compounds to be tested were injected into the subcutaneous tissue, intramuscularly, or intravenously into nude mice which were also inoculated with the human cancer cells which produce PTH-rP. The effects on the capacity of the tumor cells to cause hypercalcemia are then assessed over 2-4 weeks.
The tumor, designated RWGT2, is a human squamous cell carcinoma of the lung that was obtained from a hypercalcemic cancer patient (Guise et al, 1993). Metastatic tumor tissue was taken at the time of surgical repair of a pathologic fracture of the femur and implanted into athymic nude mice. The mice developed hypercalcemia, tumors, and increased serum PTH-rP concentrations. Tumor tissue from the mice was used to establish this cell line in culture. The cells produced PTH-rP in culture and reliably produced tumors and hypercalcemia when inoculated intramuscularly into the nude mice.
The RWGT2 cells are grown in culture in T75 flasks in α-minimal essential medium (αMEM, Hazelton Biologics Inc., Lenexa, Kans.) with 10% fetal calf serum and passaged twice a week. The mice are inoculated with RWGT2 cells by subcutaneous inoculation of 1×10^6 cells into the right flank of the upper leg.
All animal studies are conducted in accordance with the NIH Guide for the Care and Use of Laboratory Animals. Male BALB/c nude mice (Harlen), 4-6 weeks of age, are housed in a laminar flow isolator hood with a 12-hour-light/12-hour-dark cycle. Water, supplemented with multivitamins (Lymphomed, Melrose Park, Ill.) and autoclaved mouse chow (Ralston-Purina, St. Louis, Mo.) were provided ad libitum.
Weekly, the mice (each group n=5) are weighed and tumor diameters (long axis and mean axis width) are measured using calipers. Also whole blood samples for ionized calcium (Ca^2+) determination is obtained by retro-orbital puncture under anesthesia and measured using a Ciba Corning 634 ISE Ca^++/pH analyzer. Finally, blood samples for PTH-rP measurements is obtained by retro-orbital puncture and collected on ice, into pediatric vacutainer tubes containing ethylenediamine tetraacetate (EDTA) (Becton Dickinson, Rutherford, N.J.) and aprotinin (Sigma Chemical Company, St. Louis, Mo.), 400KIU/ml and stored at −70° C. Immunoreactive PTH-rP is measured using a 2 site IRMA kit available from Nichols Institute (San Juan Capistrano, Calif.).
For all experiments compound is administered when hypercalcemia is evident (treatment phase) or from the time of inoculation of RWGT2 cells (prevention phase).

[2] = tested on: MDA-MB-231 cells (human breast cell carcinoma); test: Osteolytic bone metastases study: nude mice inoculated with MDA-MB-231 cells into the left ventricle; assay type: in vivo, BALB/c nude mice; settings: 50 mg/kg/day; vs vehicle alone
Experimental: as §1, with “inhibit bone metastases” for “inhibit hypercalcemia”, “cause osteolytic bone lesions” for “cause hypercalcemia”
The tumor, named MDA-MB-231, is a human breast cell carcinoma. […]
Weekly, the mice are weighed and whole blood samples for ionized calcium (Ca^2+) determination are obtained by retro-orbital puncture under anesthesia and measured using a Ciba Coming 634 ISE Ca^++/pH analyzer.
The number of osteolytic bone metastases is determined on radiographs as described by Nakai (1992). […] The area of osteolytic bone metastases is calculated using a computerized image analysis system in which examination of osteolytic lesions from radiographs is achieved using a fluorescent light box (Kaiser, Germany) and Macro TV Zoom lens 18-108 mm f2,5 (Olympus, Japan) attached to a color video camera (Model DXC- 1 51 Sony, Japan). […] Quantitation of lesion area is performed using image analysis software (Java, Jandel Video Analysis, Jandel Scientific, Calif.). […]

[3] = 50 mg/kg/day, administered from day 0 (prevention phase), vs vehicle alone

**Q.** Which “stimulation of the PTH-rP promoter assay” value (PTH-rP promoter) does the source give for `C[n+]1c2cc(N)ccc2cc2ccc(N)cc21.[Cl-]` [MS 01500618, acriflavinium hydrochloride] here?
**A.** Its value is “about 8 fold”.

**Q.** Which PTH-rP concentrations [1, 3] does the source give for `C(=NNc1nnn[nH]1)c1ccccc1` [OSW3, 5-benzylidene hydrazino-1,2,34-tetrazole] here?
**A.** The PTH-rP concentrations was “able to lower”.

**Q.** What about the “whole blood calcium concentrations” value [1, 3] of the same molecule?
**A.** The value was “able to lower whole blood calcium concentrations”.

**Q.** What about the “whole blood calcium concentrations” value ([1]; 50 mg/kg/day, after hypercalcemia is evident (treatment phase), vs vehicle alone) of the same molecule?
**A.** The value was “able to lower whole blood calcium concentrations”.

**Q.** What about the “lesion area of osteolytic metastases” value [2] of the same molecule?
**A.** Its value is “able to significantly lower”.

**Q.** And the “lesion number of osteolytic metastases” value [2]?
**A.** The value was “able to significantly lower”.

**Q.** For `Nc1nc2nc[nH]c2c(=S)[nH]1` [OSW6, 6-thioguanine], which “whole blood calcium concentrations” value ([1]; 10 mg/kg/day, administered from day 0 (prevention phase), vs vehicle alone) is on record?
**A.** Its value is “able to significantly lower whole blood calcium concentrations”.

**Q.** What about the “whole blood calcium concentrations” value ([1]; 10 mg/kg/day, after hypercalcemia is evident (treatment phase), vs vehicle alone) of the same molecule?
**A.** The value was “able to lower whole blood calcium concentrations”.

**Q.** What about the “size of the tumor” value ([1]; hypercalcemic mice treated (treatment phase)) of the same molecule?
**A.** The value was “reduced”.
